# Measured values published in patent US20250074889A1, “Novel Aminobenzene Derivative Having Cancer Cell Growth Inhibitory Effect, and Preventive or Therapeutic Pharmaceutical Composition Containing Same as Active Ingredient” (Daewoong Pharmaceutical Co., Ltd., priority 2022, published 2025).
# What was measured:
# Type in all cases: cell-based
# [1] = tested on: transcription factor TEAD; experiment: Activity inhibition test of transcription factor TEAD (ONE-Glo luciferase, TEAD reporter-MCF7 cell line); conditions: Homo sapiens; TEAD Reporter-MCF7 cells, 24 hours treatment, luciferase luminescence
# Protocol: The transcription factor TEAD activity of the compounds prepared in Examples was measured by the ONE-Glo™ Luciferase assay (Promega, Catalog #E6110) method using the Hippo Pathway TEAD reporter-MCF7 recombinant cell line (BPS Bioscience, Catalog #60618).
# Specifically, the TEAD Reporter-MCF7 cell line contains the firefly luciferase gene whose expression is regulated under the control of TEAD response elements in the MCF7, which is a human breast cancer cell line. In the cell line, a non-phosphorylated YAP/TAZ exists in the nucleus in a non-stressed condition, which continuously induces expression of the luciferase reporter.
# TEAD Reporter-MCF7 cells were prepared in 100 μL of cell culture medium (MEM medium, 10% FBS, 1% P/S, 400 μg/mL Geneticin, 1% […], 1 mM NA pyruvate, 10 μg/mL Insulin) in a white clear bottom 96-well microplate. The prepared plate was incubated in a 5% CO2 incubator at 37° C. for 24 hours, and then the previously prepared compounds of Examples were finally treated at concentrations of 0.001, 0.01, 0.1, 1, and 10 µM, which were repeated three times for all treatment solutions. The plates treated with the compounds of Examples were incubated in a 5% CO2 incubator at 37° C. for 24 hours. 100 μL/well of the substrate aqueous solution containing luciferin was added to a white clear-bottom 96 well microplate, thereby initiating an enzyme reaction. The reaction was performed at room temperature for 5 minutes, and the luminescence (integration time 1000 ms) was measured using a Flexstation3 multi-mode microplate reader. In accordance with the instructions for the ONE-Glo™ Luciferase Assay, the luciferase enzyme activity, which represents the activity of the transcription factor TEAD, was measured by a chemiluminescence method, and the inhibitory activity of the compound according to the present invention was calculated. The results of each compound were analyzed using Microsoft Excel, and the IC50 values were calculated by GraphPad Prism software.
# [2] = tested on: NCI-H226 human mesothelioma cell line; experiment: Cell growth inhibition test (CellTiter-Glo), NCI-H226; conditions: NCI-H226 cells
# Protocol: (§1) The cell growth for the compounds prepared in Examples was measured by CellTiter-Glo® Luminescent Cell Viability (Promega, Catalog #G7571) method using NCI-H226 (addexbio), NCI-H28 (Korea Cell Line Bank) and MSTO-211H (elabscience) human mesothelioma cell lines. This evaluation method is a method in which when luciferase enzyme is activated by ATP flowing out from living cells, it reacts with a luciferin substrate, and the enzyme activity at this time is measured to confirm cell viability.
# (§2) Specifically, NCI-H226, NCI-H28, and MSTO-211H cells were prepared in 100 μL of cell culture medium (RPMI medium, 10% FBS, 1% P/S, 4.5 g/L D-Glucose, 2.383 g/L HEPES Buffer, L-Glutamine, 1.5 g/L Sodium Bicarbonate, 110 mg/L Sodium pyruvate) in a white clear bottom 96-well microplate. The prepared plate was incubated in a 5% CO2 incubator at 37° C. for 24 hours, and then the previously prepared compounds of Examples were finally treated at concentrations of 0.001, 0.01, 0.1, 1, and 10 μM, which was repeated three times for all treatment solutions. The plates treated with the compounds of Examples were incubated in a 5% CO2 incubator at 37° C. 100 μL/well of the substrate aqueous solution containing luciferin was added to a white clear-bottom 96 well microplate, thereby initiating an enzyme reaction. The reaction was performed at room temperature in the dark for 10 minutes, and the luminescence was measured using a Flexstation3 multi-mode microplate reader. In accordance with the instructions for the CellTiter-Glo™ Luminescednt Cell Viability, the luciferase enzyme activity, which represents the amount of ATP, was measured by a chemiluminescence method, and the inhibitory activity of the compounds according to the present invention was calculated. The results of each compound were analyzed using Microsoft Excel, and the IC50 values were calculated using GraphPad Prism software.
# [3] = tested on: MSTO-211H human mesothelioma cell line; experiment: Cell growth inhibition test (CellTiter-Glo), MSTO-211H; conditions: MSTO-211H cells
# Protocol: as §1, §2
# [4] = tested on: NCI-H28 human mesothelioma cell line; experiment: Cell growth inhibition test (CellTiter-Glo), NCI-H28; conditions: NCI-H28 cells
# Protocol: as §1, §2
SMILES,IC50 [1],IC50 [2],IC50 [3],IC50 [4]
"C=CC(=O)Nc1ccc(NC2CCCCC2)c(-c2ccccc2)c1 [Example 1, N-(6-(cyclohexylamino)-[1,1′-biphenyl]-3-yl)acrylamide]",42 nM,132 nM,,
"C=CC(=O)Nc1ccc(Nc2ncc(C(F)(F)F)cc2Cl)c(-c2ccccn2)c1 [Example 7, N-(4-((3-chloro-5-(trifluoromethyl)pyridin-2-yl)amino)-3-(pyridin-2-yl)phenyl)acrylamide]",53.5 nM,122 nM,,
"C=CC(=O)Nc1ccc(Nc2ncc(C(F)(F)F)cc2Cl)c(-c2cn(C)cn2)c1 [Example 9, N-(4-((3-chloro-5-(trifluoromethyl)pyridin-2-yl)amino)-3-(1-methyl-1H-imidazol-4-yl)phenyl)acrylamide]",80 nM,26 nM,,
"C=CC(=O)Nc1ccc(Nc2cc(Cl)c(Cl)cn2)c(-c2ccncn2)c1 [Example 16, N-(4-((4,5-dichloropyridin-2-yl)amino)-3-(pyrimidin-4-yl)phenyl)acrylamide]",69.1 nM,148 nM,,
"C=CC(=O)Nc1ccc(NCCc2nccs2)c(/C=C/c2ccc(F)cc2)c1 [Example 23, (E)-N-(3-(4-fluorostyryl)-4-((2-(thiazol-2-yl)ethyl)amino)phenyl)acrylamide]",48 nM,55 nM,,
"C=CC(=O)Nc1cnc(NCCc2nccs2)c(/C=C/c2ccc(F)cc2)c1 [Example 27, (E)-N-(5-(4-fluorostyryl)-6-((2-(thiazol-2-yl)ethyl)amino)pyridin-3-yl)acrylamide]",30 nM,985 nM,,
"C=CC(=O)Nc1ccc(Nc2cc(C(F)(F)F)ccn2)c(-c2cn(C)cn2)c1 [Example 31, N-(3-(1-methyl-1H-imidazol-4-yl)-4-((4-(trifluoromethyl)pyridin-2-yl)amino)phenyl)acrylamide]",314 nM,,> 10000 nM,3110 nM
"C=CC(=O)Nc1ccc(Nc2ccc(C(F)(F)F)c(Cl)c2)c(-c2cn(C)cn2)c1 [Example 43, N-(4-((3-chloro-4-(trifluoromethyl)phenyl)amino)-3-(1-methyl-1H-imidazol-4-yl)phenyl)acrylamide]",33 nM,7.4 nM,,
"C=CC(=O)Nc1ccc(Nc2ccc(OC(F)(F)F)cc2)c(-c2cn(C)cn2)c1 [Example 45, N-(3-(1-methyl-1H-imidazol-4-yl)-4-((4-(trifluoromethoxy)phenyl)amino)phenyl)acrylamide]",113 nM,33.8 nM,,
"C=CC(=O)Nc1ccc(Nc2ccc(Br)c(C)n2)c(-c2cn(C)cn2)c1 [Example 48, N-(4-((5-bromo-6-methylpyridin-2-yl)amino)-3-(1-methyl-1H-imidazol-4-yl)phenyl)acrylamide]",45 nM,10.3 nM,,
"C=CC(=O)Nc1ccc(Nc2ccc(Cl)c(C)n2)c(-c2cn(C)cn2)c1 [Example 49, N-(4-((5-chloro-6-methylpyridin-2-yl)amino)-3-(1-methyl-1H-imidazol-4-yl)phenyl)acrylamide]",258 nM,18.8 nM,,
"C=CC(=O)Nc1ccc(Nc2ccc(Cl)cn2)c(-c2cn(C)cn2)c1 [Example 50, N-(4-((5-chloropyridin-2-yl)amino)-3-(1-methyl-1H-imidazol-4-yl)phenyl)acrylamide]",88 nM,10.4 nM,,

# Now those with a lower IC50 [1], led by results:
IC50 [1],IC50 [2],IC50 [3],IC50 [4],SMILES
12.3 nM,46 nM,,,"C=CC(=O)Nc1ccc(NC2CCCCC2)c(-c2ccccn2)c1 [Example 2, N-(4-(cyclohexylamino)-3-(pyridin-2-yl)phenyl)acrylamide]"
3.7 nM,> 10000 nM,,,"C=CC(=O)Nc1ccc(N[C@H]2CC[C@@H](C(F)(F)F)CC2)c(-c2ccccn2)c1 [Example 3, N-(3-(pyridin-2-yl)-4-((cis-4-(trifluoromethyl)cyclohexyl)amino)phenyl)acrylamide]"
17.8 nM,6 nM,130 nM,3310 nM,"C=CC(=O)Nc1ccc(Nc2ccc(C(F)(F)F)cn2)c(-c2ccccn2)c1 [Example 4, N-(3-(pyridin-2-yl)-4-((5-(trifluoromethyl)pyridin-2-yl)amino)phenyl)acrylamide]"
15.4 nM,14 nM,,,"C=CC(=O)Nc1ccc(Nc2cc(Cl)c(Cl)cn2)c(-c2ccccn2)c1 [Example 8, N-(4-((4,5-dichloropyridin-2-yl)amino)-3-(pyridin-2-yl)phenyl)acrylamide]"
23 nM,10 nM,,,"C=CC(=O)Nc1ccc(Nc2cc(Cl)c(Cl)cn2)c(-c2cn(C)cn2)c1 [Example 10, N-(4-((4,5-dichloropyridin-2-yl)amino)-3-(1-methyl-1H-imidazol-4-yl)phenyl)acrylamide]"
28.2 nM,129 nM,,,"C=CC(=O)Nc1ccc(NCc2ccc(F)cc2)c(-c2ccccc2)c1 [Example 11, N-(6-((4-fluorobenzyl)amino)-[1,1′-biphenyl]-3-yl)acrylamide]"
2.4 nM,1250 nM,,,"C=CC(=O)Nc1ccc(NCc2ccc(F)cc2)c(-c2ccccn2)c1 [Example 12, N-(4-((4-fluorobenzyl)amino)-3-(pyridin-2-yl)phenyl)acrylamide]"
28.6 nM,875 nM,,,C=CS(=O)(=O)Nc1cnc(NCCc2nccs2)c(/C=C/c2ccc(F)cc2)c1 [Example 28]
5.7 nM,31.4 nM,,,"C#Cc1ccc(Nc2ccc(NC(=O)C=C)cc2-c2ccn(C)n2)nc1 [Example 34, N-(4-((5-ethynylpyridin-2-yl)amino)-3-(1-methyl-1H-pyrazol-3-yl)phenyl)acrylamide]"
10 nM,6 nM,,,"C=CC(=O)Nc1cnc(Nc2ccc(C(F)(F)F)cc2)c(-c2cn(C)cn2)c1 [Example 41, N-(5-(1-methyl-1H-imidazol-4-yl)-6-((4-(trifluoromethyl)phenyl)amino)pyridin-3-yl)acrylamide]"
7 nM,4.7 nM,,,"C=CC(=O)Nc1ccc(Nc2ccc(C(F)(F)F)cc2)c(-c2ccn(C)n2)c1 [Example 42, N-(3-(1-methyl-1H-pyrazol-3-yl)-4-((4-(trifluoromethyl)phenyl)amino)phenyl)acrylamide]"
8 nM,3.9 nM,,,"C=CC(=O)Nc1ccc(Nc2ccc(C(F)(F)F)c(F)c2F)c(-c2cn(C)cn2)c1 [Example 44, N-(4-((2,3-difluoro-4-(trifluoromethyl)phenyl)amino)-3-(1-methyl-1H-imidazol-4-yl)phenyl)acrylamide]"
28 nM,13.1 nM,,,"C=CC(=O)Nc1ccc(Nc2cc(F)c(C(F)(F)F)c(F)c2)c(-c2cn(C)cn2)c1 [Example 46, N-(4-((3,5-difluoro-4-(trifluoromethyl)phenyl)amino)-3-(1-methyl-1H-imidazol-4-yl)phenyl)acrylamide]"
3.9 nM,3.3 nM,,,"C=CC(=O)Nc1ccc(Nc2ccc(Cl)cc2)c(-c2cn(C)cn2)c1 [Example 47, N-(4-((4-chlorophenyl)amino)-3-(1-methyl-1H-imidazol-4-yl)phenyl)acrylamide]"
23.4 nM,11.8 nM,,,"C=CC(=O)Nc1ccc(Nc2cc(C(F)(F)F)ccn2)c(-c2ccn(C)n2)c1 [Example 54, N-(3-(1-methyl-1H-pyrazol-3-yl)-4-((4-(trifluoromethyl)pyridin-2-yl)amino)phenyl)acrylamide]"
5 nM,11 nM,,,"C=CC(=O)Nc1ccc(Nc2ncc(C(F)(F)F)cc2F)c(-c2ccn(C)n2)c1 [Example 56, N-(4-((3-fluoro-5-(trifluoromethyl)pyridin-2-yl)amino)-3-(1-methyl-1H-pyrazol-3-yl)phenyl)acrylamide]"
